# Data: US20030187261A1, “Purine derivatives, process for their preparation and use thereof” (priority 2000, published 2003)
# Where two headings read alike, the source gives them in different places.
# Tests used:
# MPF activity = assay: M-phase promoting factor inhibition in metaphase-arrested Xenopus egg extracts; assay type: biochemical; conditions: 1.5 h after addition
# Procedure: (§1) Metaphase-arrested Xenopus egg extracts were prepared as described previously by Blow “J. Cell Biol.” 1993, 122:993 and stored in liquid nitrogen. Demembranated Xenopus sperm nuclei were prepared as described by Blow & Laskey “Cell” 1986;47:577.
# (§2) At concentrations of cdk inhibitors (see Table 6) ranging from 0.1-2 μM, chromosomes remained highly condensed and no nuclear envelope was visible. At 4-6 μM and higher concentrations, interphase nuclei appeared with partially decondensed chromatin and an intact nuclear envelope. […] For the inhibition effect to become detectable, the first 15-min incubation of the interphase extract is probably sufficient.
# DNA synthesis = DNA synthesis in Xenopus egg extracts ([α-32P]dATP incorporation); assay type: biochemical; conditions: [α-32P]dATP incorporation after 3 h; read-out: Inhibition of DNA synthesis IC50
# Procedure: as §1, §2
# HIV-2 = assay: anti-HIV-2 activity in CEM cells; assay type: cell-based
# Procedure: The infected cell cultures were incubated at 37° C. for 5 days in a humidified CO2 incubator. The cytopathicity of the virus was examined by determination of MT-4 cell viability by trypan blue dye staining.
# CDC2 = biological target: T1, CDC2 (Homo sapiens, UniProt P06493); assay: p34cdc2 (CDC2) kinase inhibition assay, histone H1 substrate; assay type: biochemical; conditions: Table 5, CDC2 activity in cell free system
# T1 construct: made in house; host or cells: Sf9 insect cells, baculovirus co-infection
# T1 sequence (P06493 whole entry, species assumed): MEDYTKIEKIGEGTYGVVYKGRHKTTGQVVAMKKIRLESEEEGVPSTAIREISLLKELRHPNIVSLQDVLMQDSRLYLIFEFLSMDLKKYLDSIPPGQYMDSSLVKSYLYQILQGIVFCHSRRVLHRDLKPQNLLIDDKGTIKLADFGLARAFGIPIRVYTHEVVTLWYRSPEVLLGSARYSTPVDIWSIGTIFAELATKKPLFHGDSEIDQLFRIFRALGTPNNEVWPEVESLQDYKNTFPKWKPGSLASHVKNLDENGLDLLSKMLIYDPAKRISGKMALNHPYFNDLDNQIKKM
# T1 sequence (P14635 whole entry partner, species assumed): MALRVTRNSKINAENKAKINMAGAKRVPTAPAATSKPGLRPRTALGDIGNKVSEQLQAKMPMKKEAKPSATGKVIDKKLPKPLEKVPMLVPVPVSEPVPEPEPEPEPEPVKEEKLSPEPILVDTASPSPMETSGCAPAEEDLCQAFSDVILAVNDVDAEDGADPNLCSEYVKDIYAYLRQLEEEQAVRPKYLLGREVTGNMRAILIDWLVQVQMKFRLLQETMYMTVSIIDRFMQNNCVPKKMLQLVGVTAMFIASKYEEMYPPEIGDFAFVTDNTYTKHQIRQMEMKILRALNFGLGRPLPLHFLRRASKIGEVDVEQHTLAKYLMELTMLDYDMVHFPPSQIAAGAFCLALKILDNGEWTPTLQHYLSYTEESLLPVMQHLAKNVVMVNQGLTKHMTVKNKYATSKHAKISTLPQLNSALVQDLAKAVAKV
# [1] = system: PHA-stimulated lymphocytes (PBMC); assay: cell number of PHA-stimulated lymphocytes (PBMC), flow cytometry; assay type: cell-based, human; conditions: 96 hours, in the presence of IL-2; for CC50: Homo sapiens, Lymphocyte, read-out: Lymphocytes IC50
# Procedure: Human peripheral blood mononuclear cells were isolated by density gradient (Ficoll-Hypaque) (LSM, ICN Biomedicals Inc.). PBMC were stimulated with 5 μg/ml phytohemaglutinin A (PHA) (Sigma) during 24-48 hours in IMDM supplemented with 10% FCS (IMDM/10% FCS) at 37° C. After washing off the PHA, PBMC were incubated with interleukin-2 (IL-2) (10 U/ml) (Genzyme).
# (§3) Cells were plated at 10000 per well in 200 μl IMDM medium and incubated with 0-50 μM of the compounds of the invention (Table 5), by addition of the drugs directly to the culture medium and incubated at 37° C. for 96 hours. Absolute cell number was determined by addition of a known concentration of Fluoresbrite microspheres (FITC) (Polysciences, Inc.). The absolute number of cells per well was calculated as: {(total number of beads added per well)/(number of beads measured)}×(number of measured cells in the gate of interest). All analyses were performed with a FACScan (BD), using CELLQuest software (Becton Dickinson).
# The novel compounds were tested for cytotoxicity on PHA-stimulated lymphocytes (PBMC), as one of the normal counterparts of the cell lines. Cells were grown for 96 hours in the presence of IL-2 and different concentrations of the novel compounds and cell number was counted on the flow cytometer.
# [2] = system: T-lymphocyte leukemia Molt3 cell line; assay: cell growth of Molt3 cell line, flow cytometric cell count; assay type: cell-based, human; conditions: 96 hours of culture
# Procedure: (§4) Cell lines: Human leukemic cell lines were obtained from the American Type Culture Collection (ATCC, Rockville, Md., USA). They were cultured in Iscove's Modified Dulbecco's Medium (IMDM) supplemented with 10% heat inactivated fetal calf serum (FCS), 200 U/ml penicillin, 200 μg/ml streptomycin and 1 μg/ml amphotericin B. Cells were cultured in a 5% CO2-95% air fully humidified incubator. For effects on clonogenic output, 1000 cells/well were plated in duplicate in methylcellulose (0.9%), supplemented with 20% FCS and cultured for 14 days.
# as §3
# The response of the myeloid leukemia KG1 and T-lymphocyte leukemia Molt3 cell lines to the cytostatic effect of the novel compounds was determined using the above-mentioned standardized bead suspension that was used to determine the absolute cell number by flow cytometric (FCM) measurement. Cells were grown in the presence of increasing concentrations of the compounds of the invention.
# [3] = system: CD34+ hematopoietic progenitors (HPC) from adult bone marrow; assay: myeloid colony-forming unit (CFU) assay; assay type: cell-based, human; conditions: for IC50: 14 days, methylcellulose, total colony output
# [4] = system: adult bone marrow CD34+CD38- cells; assay: pre-CFU assay; assay type: cell-based, human; conditions: for IC50: 14 day liquid culture, total clonogenic output after secondary methylcellulose culture
# Description: […]. Cells with low-to-medium forward and low side scatter, highly positive green (CD34) fluorescence, and an orange (CD38) fluorescence signal lower than the mean fluorescence of cells labeled with an irrelevant isotype-matched control antibody+2 standard deviations were retained as CD34^+CD38^− cells and used in pre-CFU assays.
# Pre-CFU assays were initiated by performing liquid cultures of CD34^+CD38^− cells in duplicate in 96-well flat-bottomed plates in IMDM/10% FCS, 1% bovine serum albumin (BSA), 100 U/ml IL-1, 200 U/ml IL-6, 30 U/ml IL-3 and 100 ng/ml stem cell factor (SCF). Pre-CFU cultures were initiated with 500 CD34^+CD38^− cells/well (200 μl). After 14 days of culture at 37° C. in 7.5% O2 and 5% CO2 in a fully humidified incubator, the number of cells in each well was counted. Subsequently, the cells were harvested, washed three times in IMDM/10% FCS, and plated in duplicate at 500 cells/well (1000 μl) in secondary methylcellulose CFU cultures as described for CFU assays.
# Pre-CFU were cultured starting from adult bone marrow CD34^+CD38^− cells, that had been isolated using the FCM cell sorter. Novel compounds were added at different concentrations to the primary 14 day liquid culture. IC50 was calculated from dose-response curves from total clonogenic output after secondary methylcellulose culture (Table 5).
# KG1 = assay: clonogenic output of KG1 in methylcellulose; assay type: cell-based, human; conditions: 25 μM, 14 days
# Procedure: as §4
# Clonogenic output of KG1 was tested in methylcellulose with 25 μM of some of the novel compounds.
# KG1 cells = assay: apoptosis and cell cycle in KG1 cells (fluorescence microscopy, TUNEL); assay type: cell-based, human
# Procedure: Nuclear morphology of the cells was analysed with the fluorochromes Hoechst 33342 (λEx max 346 nm; λEm max 460 nm) (Sigma) prepared in phosphate-buffered saline (PBS at 0.1 mg/ml, added to the culture medium at a final concentration of 2 μg/ml and ethidium bromide (EB) (λEx max 540 nm; λEm max 625 nm) (Sigma) prepared in PBS at 100 μg/ml and added to the culture medium at a final concentration of 2 μg/ml (Lizard, 1995). Hundred cells were counted for each sample and percentage of apoptosis was determined.
# Control and novel compound-treated cell cultures were washed with PBS and fixed in […] (pH 7.4) for 15 minutes on ice. After washing in PBS, cells were permeabilized in 70% cold (−20° C.) ethanol and transferred to 4° C. for at least 1 hour. After rehydratation in PBS, cells were labeled with 50 μl/well TUNEL reaction mixture (Boehringer Mannheim). Cells were incubated in this solution at 37° C. for 40 minutes, washed in PBS and resuspended in 500 μl PBS containing 5 μg/ml EB and 0.1% RNAse. After 30 minutes of incubation at 4° C., green (FITC-dUTP) and red (EB-DNA) fluorescence of individual cells was measured on a FACscan flow cytometer (Gorczyca, 1993). Negative control (fixed and permeabilized cells incubated with 50 μl label solution per well without terminal transferase, instead of TUNEL reaction mixture) and positive control (fixed and permeabilized cells incubated with DNase I (100 μg/ml) that induces DNA strand breaks) were included in each experimental set-up.
# Flow cytometric detection of apoptosis combined with DNA staining can identify apoptotic cells and simultaneously evaluate their position in the cell cycle. This technique was used to provide infomation about the possible cell cycle specific initiation of apoptosis by the tested compounds. If more than 2% of apoptotic cells were detected by the TUNEL method and the absolute number of acquired apoptotic events exceeded 2000, DNA content was simultaneously measured. Within the apoptotic population, analysis and calculation of the different cell cycle phases was carried out by an iterative curve fitting procedure (ModFit LT cell cycle analysis sofware from Verity software house, INC).
# Viable, apoptotic, necrotic (=primary necrosis, not following apoptosis) and secondarily necrotic cells (=late apoptotis, evolving to necrosis) were scored differentially after 6, 12, 24, 48 and 72 hours of exposure to novel compounds. For the three products a different apoptosis-inducing pattern could be observed. Apoptosis induction occurs fast after incubation with P23 and P28 but slower after incubation with P27.
# Flow cytometric detection of apoptosis and cell cycle analysis: The induction of apoptotic death of KG1 cells by the novel compounds was confirmed using the TUNEL reaction technique (FIG. 5). […] Incubation of KG1 cell line with P27 results in detectable apoptosis after 24 hours. Percentage of apoptotic cells in G0-G1 increases with time, while the number of apoptotic cells in S+G2/M phases decreases. […] After 6 and 12 hours of incubation the apoptotic population seems mainly to evolve from S phase.
# [5] = system: myeloid leukemia KG1 cell line; assay: cell growth of KG1 cell line, flow cytometric cell count; conditions: for IC50: read-out: KGI IC50; for cell number after 6 hours of exposure, wash and 7 days in drug-free medium: KG1, compared to control without novel compounds
# Procedure: To determine reversibility of the effects of the new compounds, cells were plated at 10,000 per well and exposed to 0-50 μM of the composed, either continuously for 7 days (control) or only for 6 hours. In the latter case, cells were washed after 6 hours in phosphate-buffered-saline (PBS) (Life Technologies) and reseeded into drug-free medium for 7 days.
# β-adrenergic receptors = assay: isoproterenol-induced intracellular cAMP synthesis in rat C6 glioma; assay type: cell-based; conditions: cAMP induced by 5 μM (−) isoproterenol, 30 min
# Procedure: Rat C6 glioma (ATCC N° CCL107) was cultivated in monolayer in serum-free chemically defined medium containing Ham's F10/minimal essential medium (1:1 vol/vol), 2 mM L-glutamine, 1% (vol/vol) minimal essential medium vitamins (100×), 1% (vol/vol) minimal essential medium nonessential amino acids (100×), 100 U/ml penicillin, 100 μg/ml streptomycin and 30 nM sodium selenite. Incubation was at 37° C. in a humidified atmosphere. Assays were performed in the logaritmic growth phase at a density of 2.5×10^5 cells/cm^2. Intracellular cAMP synthesis was induced by addition of 5 μM (−) isoproterenol. After 30 min incubation at 37° C. the medium was removed and the cellular amount of cAMP determined using the cAMP-enzyme immunoassay kit of Amersham. The IC50 is determined from a dose-response curve in duplicate. The effect of seven purine-analogs was measured after simultaneous addition with isoproterenol.
# As P2Y1-like and A2 purinergic receptors, negatively and positively coupled to adenylate cyclase respectively, are present on rat C6 glioma the modulation of the synthesis of cAMP may be due to inhibition of the activation of β-adrenergic receptors by isoproterenol or to activation of purinergic receptors.
Compound,IC50 (CDC2) [µM],"IC50 ([2]; Homo sapiens, MOLT-3) [µM]","IC50 ([3]; Homo sapiens, 336 h) [µM]","output of the different types of myeloid colonies (CFU-E, CFU-G and CFU-M) ([3]; scored differentially)","IC50 ([4]; Homo sapiens, 336 h) [µM]",Colony output vs. control cultures without novel compound (KG1) [%],"IC50 ([5]; Homo sapiens, KG-1, 96 h) [µM]",further results
CC[C@H](CCO)Nc1nc(NCc2ccc(O)c(O)c2)c2ncn(C(C)C)c2n1,–,–,–,–,–,–,–,IC50 (MPF activity): 2.8 µM; IC50 (DNA synthesis): 3.5 µM
"Nc1nc(NCc2ccccc2)c2ncn(CCOCP(=O)(O)O)c2n1 [PME-derivatives: Benzylamino, reference compound]",–,–,–,–,–,–,–,HIV-2 CEM IC50 (HIV-2): >20 µg/mL
"CC(C)n1cnc2c(NC(CO)c3ccccc3)nc(NCCCO)nc21 (racemic) [P27, 2-(3-hydroxypropylamino)-6-[(R,S)-(1-phenyl-2-hydroxyethyl)amino]-9-isopropylpurine]",> 100,14 ± 1.5,> 50,significantly lower colony output,> 25,8,7 ± 2,"CC50 [1]: 8 ± 0.5 µM; CFU-M colony output ([3]; scored differentially): not significantly decreased; time of incubation after which apoptosis was detected (TUNEL) (KG1 cells; KG1): 24 h; speed of apoptosis induction (microscopic examination) (KG1 cells; KG1, 6-72 hours of exposure, FIG. 4): slower; apoptotic cells in G0-G1 phase versus control cells (KG1 cells; KG1, TUNEL with EB, FIG. 6): significant after 72 hours; cell number after 6 hours of exposure, wash and 7 days in drug-free medium [5]: (some) recovery of cell number"
CC(C)n1cnc2c(NC(CO)c3ccccc3)nc(NCCCO)nc21 (racemic),–,–,–,–,–,–,–,IC50 (MPF activity): 1.5 µM; IC50 (DNA synthesis): 1.4 µM
"CC(C)=CCNc1nc(NCCO)nc2c1ncn2C [P3, 2-(2-hydroxyethylamino)-6-(2-isopentenylamino)-9-methylpurine]",–,≥ 51,> 50,no significant difference,> 25,47,≥ 51,–
CSc1nc(NC(C)c2ccc(O)c(O)c2)c2ncn(C(C)C)c2n1 (stereo not shown) [P16],> 200,–,–,no significant difference,–,16,–,IC50 [1]: 26.5 ± 2.8 µM; IC50 [2]: 37 ± 7.9 µM; IC50 [3]: > 50 µM; activity on pre-CFU compared with CFU [4]: more active on pre-CFU than on CFU; IC50 [4]: 16 µM; IC50 ([5]; 96 hours of culture): 23 ± 1.2 µM
"CC(C)n1cnc2c(NCc3ccccc3)nc(NCCCN)nc21 [P12, 2-(3-aminopropylamino)-6-benzylamino-9-isopropylpurine]",21,19.3 ± 2.3,37,significantly lower colony output,20,–,16 ± 1.7,"Effect (β-adrenergic receptors; rat C6 glioma): inhibition; IC50 (β-adrenergic receptors; read-out: I50): 45 ± 5 µM; CC50 [1]: 8 ± 1.2 µM; cell number after 6 hours of exposure, wash and 7 days in drug-free medium [5]: (some) recovery of cell number"
